Data set [1] has as its system SARS-CoV-2. Briefly: Anti-SARS-CoV-2 immunofluorescence assay (IFA) in Caco-2 cells. It counts as cell-based. The following applies: Severe acute respiratory syndrome coronavirus 2, MOI 0.002, read-out: EC50, inhibition of SARS-CoV-2 replication (nucleoprotein IFA).
For another data set, the target named is YFV RdRp (Yellow fever virus, UniProt P03314). Kind of data set: biochemical.
Data set [2] concerns SARS-CoV-2. Kind of data set: SARS-CoV-2 yield reduction assay (plaque assay) in VERO-E6 cells. In kind it is cell-based. The following applies: MOI 0.04, 3 days.
The nature of data set [3]: Cytotoxicity (XTT) in Caco-2 cells. The following applies: human. A general note: Formazan colour is commonly taken as a measure of viable cells.
In a further data set the test system is Caco-2 cells. Briefly: Cytotoxicity (XTT) in Caco-2 cells.
The next data set concerns the target NTAV RdRp (Ntaya virus, UniProt K0BRZ6). Briefly: Radioactive polymerase assay (IC50), NTAV RdRp. It counts as biochemical. The following applies: radioactively labeled elongation products, [α-32P]-ATP, hairpin RNA.
The nature of the next data set: in vitro. The following applies: pig.
Another data set deals with flaviviral RdRp. In kind it is biochemical, Flaviviridae (JEV, NTAV, TBEV, YFV, ZIKV).
The next data set has as its target T1, SARS-CoV-2 RdRp (Severe acute respiratory syndrome coronavirus 2, UniProt P0DTD1).
T1 construct: except for the full length nsp12 protein, which was expressed in insect cells; His6 (C); made in house; host or cells: nsp12 in insect cells; nsp7 and nsp8 in E. coli BL-21 CodonPlus (DE3)-RIL
Kind of data set: biochemical.

For another data set, the target named is T2, WNV RdRp (West Nile virus, UniProt Q9Q6P4).
T2 construct: NS5 proteins and SARS-CoV-2 nsp12, nsp8 and nsp7 were expressed with appropriate purification and folding tags; His6-TEV site (N); made in house; host or cells: E. coli BL-21 CodonPlus (DE3)-RIL
Kind of data set: biochemical.

The subject of data set [4] is SARS-CoV-2. Briefly: Anti-SARS-CoV-2 cytopathic effect (CPE)-based assay in Calu-3 cells. In kind it is cell-based. The following applies: Severe acute respiratory syndrome coronavirus 2, 72 h, MOI 0.04, 3 days, XTT, read-out: EC50, inhibition of virus-induced CPE. For orientation: Damage to the host cells serves as the signal in cytopathic effect assays.
In data set [5] the test system is SARS-CoV-2. Kind of data set: Anti-SARS-CoV-2 immunofluorescence assay (IFA) in VERO-E6 cells. It counts as cell-based. The following applies: Severe acute respiratory syndrome coronavirus 2, Vero C1008, 72 h, MOI 0.02, 3 days, read-out: EC50, inhibition of SARS-CoV-2 (nucleoprotein IFA).
The next data set addresses TBEV RdRp (Tick-borne encephalitis virus, UniProt Q01299). Kind of data set: biochemical.
A short description of data set [6]: Cytotoxicity (XTT) in Calu-3 cells. The following applies: human.
The next data set has as its system Calu-3 cells. Briefly: Cytotoxicity (XTT) in Calu-3 cells.
In data set [7] the target is T3, SARS-CoV-2 RdRp (nsp7, nsp8 and nsp12) (Severe acute respiratory syndrome coronavirus 2, UniProt P0DTD1).
T3 construct: except for the full length nsp12 protein, which was expressed in insect cells; His6 (C); made in house; host or cells: nsp12 in insect cells; nsp7 and nsp8 in E. coli BL-21 CodonPlus (DE3)-RIL
In kind it is biochemical.

For data set [8], the system named is SARS-CoV-2. In kind it is cell-based.
Another data set has as its system VERO-E6 cells. Kind of data set: Cytotoxicity (XTT) in VERO-E6 cells. The following applies: 3 days.
In the next data set the target is T4, JEV RdRp (Japanese encephalitis virus, UniProt P32886).
T4 construct: NS5 proteins and SARS-CoV-2 nsp12, nsp8 and nsp7 were expressed with appropriate purification and folding tags; His6-TEV site (N); made in house; host or cells: E. coli BL-21 CodonPlus (DE3)-RIL
Briefly: biochemical.

A further data set has as its system TBEV (strain Hypr). Briefly: microbe, parasite or virus in culture. In kind it is cell-based, tick-borne encephalitis virus. The following applies: for EC50: Tick-borne encephalitis virus, 48 h, read-out: EC50, anti-TBEV activity.
Another data set has as its target ZIKV RdRp (Zika virus, UniProt A0A1L5YKZ2). Kind of data set: Radioactive polymerase assay (IC50), ZIKV RdRp. In kind it is biochemical. The following applies: radioactively labeled elongation products, [α-32P]-ATP, hairpin RNA.

Chain of YFV RdRp (P03314 2507-3411 limits assumed): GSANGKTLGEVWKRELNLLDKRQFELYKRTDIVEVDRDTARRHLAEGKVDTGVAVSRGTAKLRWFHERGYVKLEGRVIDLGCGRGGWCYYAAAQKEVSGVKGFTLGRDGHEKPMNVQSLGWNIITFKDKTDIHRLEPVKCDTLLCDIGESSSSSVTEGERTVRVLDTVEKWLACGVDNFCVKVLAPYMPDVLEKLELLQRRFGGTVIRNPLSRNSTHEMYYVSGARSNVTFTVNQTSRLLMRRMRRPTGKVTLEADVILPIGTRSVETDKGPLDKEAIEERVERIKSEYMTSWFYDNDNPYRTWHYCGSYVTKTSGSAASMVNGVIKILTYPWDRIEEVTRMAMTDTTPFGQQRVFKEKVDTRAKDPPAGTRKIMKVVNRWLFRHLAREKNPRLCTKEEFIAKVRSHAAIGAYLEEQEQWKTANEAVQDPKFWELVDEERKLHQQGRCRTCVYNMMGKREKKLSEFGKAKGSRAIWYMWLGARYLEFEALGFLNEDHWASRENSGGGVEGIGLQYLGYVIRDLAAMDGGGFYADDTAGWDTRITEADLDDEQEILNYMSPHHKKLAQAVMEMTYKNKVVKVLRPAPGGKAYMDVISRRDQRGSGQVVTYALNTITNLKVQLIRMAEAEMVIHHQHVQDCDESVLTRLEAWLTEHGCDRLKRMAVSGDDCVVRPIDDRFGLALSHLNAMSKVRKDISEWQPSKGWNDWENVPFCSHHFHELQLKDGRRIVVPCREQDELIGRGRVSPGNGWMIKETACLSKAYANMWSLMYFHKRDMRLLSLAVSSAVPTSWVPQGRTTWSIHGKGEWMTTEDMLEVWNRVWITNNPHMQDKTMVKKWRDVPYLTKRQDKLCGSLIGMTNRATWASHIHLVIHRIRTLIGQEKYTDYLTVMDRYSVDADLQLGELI
Chain of NTAV RdRp (K0BRZ6 2523-3427): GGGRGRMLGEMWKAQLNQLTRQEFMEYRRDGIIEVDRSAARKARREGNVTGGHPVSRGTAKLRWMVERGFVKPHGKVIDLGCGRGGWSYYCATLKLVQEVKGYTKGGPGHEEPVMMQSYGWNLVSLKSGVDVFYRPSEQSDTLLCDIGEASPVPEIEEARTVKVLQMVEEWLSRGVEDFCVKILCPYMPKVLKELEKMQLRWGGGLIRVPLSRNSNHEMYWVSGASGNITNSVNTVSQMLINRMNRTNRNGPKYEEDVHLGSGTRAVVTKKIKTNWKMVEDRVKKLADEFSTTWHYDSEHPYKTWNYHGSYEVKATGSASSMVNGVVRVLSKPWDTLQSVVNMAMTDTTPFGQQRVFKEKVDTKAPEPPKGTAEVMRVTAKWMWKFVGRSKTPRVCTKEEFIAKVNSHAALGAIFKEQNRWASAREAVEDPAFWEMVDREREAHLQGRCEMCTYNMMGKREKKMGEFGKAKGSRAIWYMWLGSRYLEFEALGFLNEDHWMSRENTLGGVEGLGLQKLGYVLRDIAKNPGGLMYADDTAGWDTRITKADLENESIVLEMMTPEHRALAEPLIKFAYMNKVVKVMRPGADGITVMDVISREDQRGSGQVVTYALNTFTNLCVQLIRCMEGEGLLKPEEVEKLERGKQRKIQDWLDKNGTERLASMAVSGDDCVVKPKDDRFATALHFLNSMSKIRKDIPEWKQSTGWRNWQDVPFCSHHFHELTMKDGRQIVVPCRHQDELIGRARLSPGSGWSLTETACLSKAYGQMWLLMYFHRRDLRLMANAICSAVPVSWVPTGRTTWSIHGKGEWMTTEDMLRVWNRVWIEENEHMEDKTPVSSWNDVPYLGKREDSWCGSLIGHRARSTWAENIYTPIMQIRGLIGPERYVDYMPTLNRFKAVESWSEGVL
Chain of ZIKV RdRp (A0A1L5YKZ2 2521-3423): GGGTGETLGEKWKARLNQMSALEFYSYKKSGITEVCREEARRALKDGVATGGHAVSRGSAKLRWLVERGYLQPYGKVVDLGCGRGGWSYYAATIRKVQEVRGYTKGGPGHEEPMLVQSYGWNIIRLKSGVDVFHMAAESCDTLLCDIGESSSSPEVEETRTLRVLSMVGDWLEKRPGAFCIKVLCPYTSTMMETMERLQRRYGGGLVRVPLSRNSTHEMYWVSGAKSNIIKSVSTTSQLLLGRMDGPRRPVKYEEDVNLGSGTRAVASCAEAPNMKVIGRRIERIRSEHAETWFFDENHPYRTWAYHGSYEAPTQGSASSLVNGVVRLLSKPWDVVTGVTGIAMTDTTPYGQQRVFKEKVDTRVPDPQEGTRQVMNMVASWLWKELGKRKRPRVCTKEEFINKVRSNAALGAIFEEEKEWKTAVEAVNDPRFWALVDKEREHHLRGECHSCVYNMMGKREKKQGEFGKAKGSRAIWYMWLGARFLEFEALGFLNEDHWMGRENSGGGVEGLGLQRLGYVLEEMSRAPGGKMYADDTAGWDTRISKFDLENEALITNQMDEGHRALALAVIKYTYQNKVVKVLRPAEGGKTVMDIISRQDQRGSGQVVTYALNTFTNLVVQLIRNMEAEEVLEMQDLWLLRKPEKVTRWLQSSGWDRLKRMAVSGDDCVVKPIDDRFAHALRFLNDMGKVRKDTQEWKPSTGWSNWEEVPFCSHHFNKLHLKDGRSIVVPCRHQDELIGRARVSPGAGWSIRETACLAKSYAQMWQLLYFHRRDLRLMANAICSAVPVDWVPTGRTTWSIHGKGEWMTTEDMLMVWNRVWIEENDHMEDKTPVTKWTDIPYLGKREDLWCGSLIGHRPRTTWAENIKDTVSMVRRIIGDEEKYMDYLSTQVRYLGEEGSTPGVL
T4 sequence (P32886 2528-3432 limits assumed): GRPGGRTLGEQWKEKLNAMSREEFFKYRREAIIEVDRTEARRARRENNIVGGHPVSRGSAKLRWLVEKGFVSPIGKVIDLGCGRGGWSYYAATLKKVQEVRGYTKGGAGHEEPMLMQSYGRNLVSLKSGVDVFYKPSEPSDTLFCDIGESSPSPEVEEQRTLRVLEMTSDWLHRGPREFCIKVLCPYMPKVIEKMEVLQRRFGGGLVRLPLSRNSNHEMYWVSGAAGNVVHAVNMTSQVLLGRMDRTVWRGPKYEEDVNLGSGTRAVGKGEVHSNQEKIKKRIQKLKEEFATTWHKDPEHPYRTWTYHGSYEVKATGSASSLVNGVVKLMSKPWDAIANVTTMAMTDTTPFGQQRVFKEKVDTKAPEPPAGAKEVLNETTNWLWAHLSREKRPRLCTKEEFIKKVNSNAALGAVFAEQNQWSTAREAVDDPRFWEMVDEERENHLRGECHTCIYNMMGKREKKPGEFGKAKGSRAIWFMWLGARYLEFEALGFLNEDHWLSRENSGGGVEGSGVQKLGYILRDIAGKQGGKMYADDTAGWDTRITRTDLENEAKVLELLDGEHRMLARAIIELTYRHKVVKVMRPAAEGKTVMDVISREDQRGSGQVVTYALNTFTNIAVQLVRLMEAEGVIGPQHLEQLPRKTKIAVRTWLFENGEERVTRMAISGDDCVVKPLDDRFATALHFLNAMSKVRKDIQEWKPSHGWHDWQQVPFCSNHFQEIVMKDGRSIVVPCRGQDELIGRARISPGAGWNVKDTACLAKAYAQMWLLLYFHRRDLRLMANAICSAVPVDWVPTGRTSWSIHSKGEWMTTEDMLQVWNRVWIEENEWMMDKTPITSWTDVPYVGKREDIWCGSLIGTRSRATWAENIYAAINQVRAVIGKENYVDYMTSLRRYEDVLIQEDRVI
Chain of TBEV RdRp (Q01299 2512-3414 limits assumed): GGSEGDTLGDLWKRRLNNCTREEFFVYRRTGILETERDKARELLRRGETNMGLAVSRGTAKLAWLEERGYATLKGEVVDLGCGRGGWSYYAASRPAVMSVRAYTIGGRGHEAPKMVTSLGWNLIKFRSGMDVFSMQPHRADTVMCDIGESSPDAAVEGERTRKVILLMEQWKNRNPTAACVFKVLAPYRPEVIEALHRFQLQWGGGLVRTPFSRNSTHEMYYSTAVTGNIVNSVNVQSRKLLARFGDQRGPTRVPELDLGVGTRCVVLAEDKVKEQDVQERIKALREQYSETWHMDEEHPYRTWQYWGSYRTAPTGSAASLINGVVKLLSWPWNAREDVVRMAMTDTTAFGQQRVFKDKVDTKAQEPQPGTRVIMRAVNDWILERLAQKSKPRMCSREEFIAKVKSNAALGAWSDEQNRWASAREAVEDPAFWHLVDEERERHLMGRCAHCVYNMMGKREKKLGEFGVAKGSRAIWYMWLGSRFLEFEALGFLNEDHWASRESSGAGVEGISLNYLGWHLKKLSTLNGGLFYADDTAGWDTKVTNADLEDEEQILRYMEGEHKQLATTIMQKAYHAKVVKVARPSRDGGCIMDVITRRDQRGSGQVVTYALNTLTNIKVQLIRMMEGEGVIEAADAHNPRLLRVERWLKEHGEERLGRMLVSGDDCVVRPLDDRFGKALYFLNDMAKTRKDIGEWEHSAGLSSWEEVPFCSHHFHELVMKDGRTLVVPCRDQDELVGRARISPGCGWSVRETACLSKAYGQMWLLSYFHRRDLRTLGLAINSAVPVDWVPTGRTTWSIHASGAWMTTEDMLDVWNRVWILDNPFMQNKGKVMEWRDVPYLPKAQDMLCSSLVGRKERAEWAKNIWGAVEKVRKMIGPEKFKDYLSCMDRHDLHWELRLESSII

What is called EC50 is the midpoint of the concentration-response curve. Usually IC50 stands for the concentration at which inhibition is half-maximal. Regarding `Cc1c(C)c2c(c3c1CC[n+]1ccc(/C=C4\Sc5ccccc5N4C)cc1-3)-c1cccc(/C=C3\Sc4ccccc4N3C)[n+]1CC2` [PR673], the EC50 stood at 17 µM in the data set with SARS-CoV-2 [1], 18 µM with SARS-CoV-2 [4], 29 µM with SARS-CoV-2 [5] and 0.11 µM in the data set with TBEV (strain Hypr). In addition, the IC50 is 3 ± 0.1 µM against YFV RdRp; 3.1 ± 0.2 µM at NTAV RdRp; 4 ± 0.2 µM against SARS-CoV-2 RdRp; 3.4 ± 0.2 µM at WNV RdRp; 3.6 ± 0.2 µM at TBEV RdRp; 3.9 ± 0.4 µM against JEV RdRp. Further, on ZIKV RdRp, the IC50 was 4.9 ± 0.5 µM. The “activity compared with remdesivir in yield reduction assay” value in the data set on SARS-CoV-2 [2] was “much less active than the COVID-19 drug remdesivir”. In the data set on SARS-CoV-2 [2] (at 50 µM), the “reduction in viral plaques” value is reported as 58%. In addition, the CC50 at 3 days in data set [3] and in [6] was more than 50 µM in each case. Also, the “cytotoxicity at the highest used concentration” value in the data set with Caco-2 cells and with Calu-3 cells was “mild cytotoxicity” throughout. The same compound had a CC50 in the data set “in vitro” of more than 50 µM. Also, the “inhibition of RNA synthesis by flaviviral RdRps” value in the data set on flaviviral RdRp is “strong inhibition of RNA synthesis in low micromolar concentrations”. Further, the “PR673 concentration at which synthesis of RNA was totally blocked” value in data set [7] is given as “above 12.5 µM”. Further, the “inhibition of virus replication (virus-induced CPE) in screen” value with SARS-CoV-2 [8] is recorded as “inhibited the replication of the virus”. In the data set with VERO-E6 cells, the cell toxicity entry was “no cell toxicity”. Besides, the “anti-TBEV activity in comparison to 7-deaza-2′-CMA” value in the data set with TBEV (strain Hypr) is listed as “almost four-fold higher”. In addition, the “compound concentration of complete inhibition of TBEV replication” value in the data set on TBEV (strain Hypr) came out at 0.4 µM.

In the case of `C[C@@]1(O)[C@H](O)[C@@H](CO)O[C@H]1n1ccc2c(N)ncnc21` [7-deaza-2′-CMA, 7-deaza-2′-C-methyladenosine, reference compound], the CC50 in the data set “in vitro” is more than 50 µM. Moreover, the EC50 in the data set on TBEV (strain Hypr) was determined as 0.43 ± 0.06 µM.

The values above are taken from PMC8953834, “A Helquat-like Compound as a Potent Inhibitor of Flaviviral and Coronaviral Polymerases” (Molecules, 2022).
